Measured values as given in the supplement of paper PMC11451515.

Tests used:
Conditions in all cases: 48 h
NOMO1 [1] = assay: cell viability relative to DMSO control; higher = less cytotoxic
How it was run: (§1)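 Three leukemia lines were tested: NOMO1 and SEM at 500 cells/well and P12-Ichikawa at 1000 cells/well. Each was adapted for at least four passages in each medium and seeded in 5 μl in 1536-well plates, and library compounds in DMSO were pin-dosed from 47 μM to 0.79 nM in 11 threefold steps. After 48 h at 37°C, CellTiter-Glo One luminescence was read. Viability is a percentage relative to DMSO wells on each plate, with cell-free wells as background.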

SEM cells [2] = assay: as above
How it was run: as §1

NOMO1 [3] = assay: AUC of viability dose-response curve (% viability x log10 dose units); higher = less sensitive
How it was run: (§2)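 Leukemia cells adapted to each medium (500 or 1000 cells/well, 1536-well plates) were exposed to library compounds in DMSO for 48 h at 37°C at 11 threefold doses, 47 μM to 0.79 nM. Luminescence by CellTiter-Glo One was normalised per plate to DMSO and cell-free wells, then fitted with a four-parameter log-logistic curve on log10 dose. Curves above full viability were scaled and quality-control failures removed before area under the curve was integrated by trapezoidal rule.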

P12-Ichikawa [4] = assay: as above
How it was run: as §2

SEM cells [5] = assay: as above
How it was run: as §2

P12-Ichikawa [6] = assay: cell viability relative to DMSO control; higher = less cytotoxic
How it was run: as §1

CN(Cc1cnc2nc(N)nc(N)c2n1)c1ccc(C(=O)N[C@@H](CCC(=O)O)C(=O)O)cc1
Conditions	cell viability [%]
NOMO1 [1], RPMI 5 mM glucose + 10% FBS, 0.000781 µM	116
NOMO1 [1], RPMI 5 mM glucose + 10% FBS, 0.00234 µM	125
NOMO1 [1], RPMI 5 mM glucose + 10% FBS, 0.00702 µM	123
NOMO1 [1], RPMI 5 mM glucose + 10% FBS, 0.0211 µM	135
NOMO1 [1], RPMI 5 mM glucose + 10% FBS, 0.0632 µM	121
NOMO1 [1], RPMI 5 mM glucose + 10% FBS, 0.19 µM	136
NOMO1 [1], RPMI 5 mM glucose + 10% FBS, 0.569 µM	107
NOMO1 [1], RPMI 5 mM glucose + 10% FBS, 1.71 µM	104
NOMO1 [1], RPMI 5 mM glucose + 10% FBS, 5.12 µM	73.1
NOMO1 [1], RPMI 5 mM glucose + 10% FBS, 15.4 µM	26.7
NOMO1 [1], RPMI 5 mM glucose + 10% FBS, 46.1 µM	24.4
SEM cells [2], HPLM + 10% dialyzed FBS, 0.000781 µM	115
SEM cells [2], HPLM + 10% dialyzed FBS, 0.00234 µM	141
SEM cells [2], HPLM + 10% dialyzed FBS, 0.00702 µM	122
SEM cells [2], HPLM + 10% dialyzed FBS, 0.0211 µM	133
SEM cells [2], HPLM + 10% dialyzed FBS, 0.0632 µM	119
SEM cells [2], HPLM + 10% dialyzed FBS, 0.19 µM	53.5
SEM cells [2], HPLM + 10% dialyzed FBS, 0.569 µM	43
SEM cells [2], HPLM + 10% dialyzed FBS, 1.71 µM	37
SEM cells [2], HPLM + 10% dialyzed FBS, 5.12 µM	25.7
SEM cells [2], HPLM + 10% dialyzed FBS, 15.4 µM	18
SEM cells [2], HPLM + 10% dialyzed FBS, 46.1 µM	15.2

AUC of viability dose-response curve
Conditions	NOMO1 [3]	P12-Ichikawa [4]	SEM cells [5]
HPLM + 10% dialyzed FBS	304	245	277
RPMI 5 mM glucose + 10% FBS	390	277	328
RPMI 5 mM glucose + 10% dialyzed FBS	278	258	249

CC(=O)O[C@H]1C[C@@H]2CC[C@@H]3[C@H](CC[C@@]4(C)[C@H]3C[C@H]([N+]3(C)CCCCC3)[C@@H]4OC(C)=O)[C@@]2(C)C[C@@H]1[N+]1(C)CCCCC1
Conditions	cell viability [%]
P12-Ichikawa [6], RPMI 5 mM glucose + 10% dialyzed FBS, 0.000781 µM	123
P12-Ichikawa [6], RPMI 5 mM glucose + 10% dialyzed FBS, 0.00234 µM	134
P12-Ichikawa [6], RPMI 5 mM glucose + 10% dialyzed FBS, 0.00702 µM	121
P12-Ichikawa [6], RPMI 5 mM glucose + 10% dialyzed FBS, 0.0211 µM	124
P12-Ichikawa [6], RPMI 5 mM glucose + 10% dialyzed FBS, 0.0632 µM	132
P12-Ichikawa [6], RPMI 5 mM glucose + 10% dialyzed FBS, 0.19 µM	125
P12-Ichikawa [6], RPMI 5 mM glucose + 10% dialyzed FBS, 0.569 µM	127
P12-Ichikawa [6], RPMI 5 mM glucose + 10% dialyzed FBS, 1.71 µM	117
P12-Ichikawa [6], RPMI 5 mM glucose + 10% dialyzed FBS, 5.12 µM	125
P12-Ichikawa [6], RPMI 5 mM glucose + 10% dialyzed FBS, 15.4 µM	117
P12-Ichikawa [6], RPMI 5 mM glucose + 10% dialyzed FBS, 46.1 µM	113
SEM cells [2], HPLM + 10% dialyzed FBS, 0.000781 µM	110
SEM cells [2], HPLM + 10% dialyzed FBS, 0.00234 µM	110
SEM cells [2], HPLM + 10% dialyzed FBS, 0.00702 µM	119
SEM cells [2], HPLM + 10% dialyzed FBS, 0.0211 µM	126
SEM cells [2], HPLM + 10% dialyzed FBS, 0.0632 µM	108
SEM cells [2], HPLM + 10% dialyzed FBS, 0.19 µM	108
SEM cells [2], HPLM + 10% dialyzed FBS, 0.569 µM	115
SEM cells [2], HPLM + 10% dialyzed FBS, 1.71 µM	121
SEM cells [2], HPLM + 10% dialyzed FBS, 5.12 µM	109
SEM cells [2], HPLM + 10% dialyzed FBS, 15.4 µM	110
SEM cells [2], HPLM + 10% dialyzed FBS, 46.1 µM	117

AUC of viability dose-response curve
Conditions	NOMO1 [3]	P12-Ichikawa [4]	SEM cells [5]
HPLM + 10% dialyzed FBS	459	464	477
RPMI 5 mM glucose + 10% FBS	466	457	438
RPMI 5 mM glucose + 10% dialyzed FBS	472	465	465

Cn1cc(/C=C/C(=O)c2cccc(F)c2)cc1/C=C/C(=O)NO
SEM cells [2], HPLM + 10% dialyzed FBS
Conditions	cell viability [%]
0.000781 µM	123
0.00234 µM	133
0.00702 µM	120
0.0211 µM	129
0.0632 µM	136
0.19 µM	120
0.569 µM	137
1.71 µM	128
5.12 µM	137
15.4 µM	132
46.1 µM	118

AUC of viability dose-response curve
Conditions	NOMO1 [3]	P12-Ichikawa [4]	SEM cells [5]
HPLM + 10% dialyzed FBS	468	466	474
RPMI 5 mM glucose + 10% FBS	470	475	476
RPMI 5 mM glucose + 10% dialyzed FBS	468	462	469

CC(=O)O[C@H]1C(=O)[C@]2(C)[C@@H](O)C[C@H]3OC[C@@]3(OC(C)=O)C2[C@H](OC(=O)C4=CC=CC=C4)[C@]5(O)C[C@H](OC(=O)[C@H](O)[C@@H](NC(=O)C6=CC=CC=C6)C7=CC=CC=C7)\C(=C1/C5(C)C)C (stereo partly drawn)
cell viability [%]
Conditions	NOMO1 [1]	P12-Ichikawa [6]	SEM cells [2]
HPLM + 10% dialyzed FBS, 0.000781 µM	74.6	93.3	81.5
HPLM + 10% dialyzed FBS, 0.00234 µM	34.7	42.1	50
HPLM + 10% dialyzed FBS, 0.00702 µM	39.5	35.2	31.7
HPLM + 10% dialyzed FBS, 0.0211 µM	41.3	27.6	27.9
HPLM + 10% dialyzed FBS, 0.0632 µM	39.6	31.9	27.8
HPLM + 10% dialyzed FBS, 0.19 µM	31.7	27.8	26.4
HPLM + 10% dialyzed FBS, 0.569 µM	33.1	25.7	26.8
HPLM + 10% dialyzed FBS, 1.71 µM	36.6	27.1	24.1
HPLM + 10% dialyzed FBS, 5.12 µM	35.5	25	26.8
HPLM + 10% dialyzed FBS, 15.4 µM	29.1	19.1	22.6
HPLM + 10% dialyzed FBS, 46.1 µM	33.1	15.3	25.9
RPMI 5 mM glucose + 10% FBS, 0.000781 µM	124	88.3	59.1
RPMI 5 mM glucose + 10% FBS, 0.00234 µM	27.4	48	30.5
RPMI 5 mM glucose + 10% FBS, 0.00702 µM	23	34.3	22.3
RPMI 5 mM glucose + 10% FBS, 0.0211 µM	25.4	24	17
RPMI 5 mM glucose + 10% FBS, 0.0632 µM	25.4	26.1	16.2
RPMI 5 mM glucose + 10% FBS, 0.19 µM	22.5	24.8	14.2
RPMI 5 mM glucose + 10% FBS, 0.569 µM	23.2	27.8	16.3
RPMI 5 mM glucose + 10% FBS, 1.71 µM	23.9	23	15.7
RPMI 5 mM glucose + 10% FBS, 5.12 µM	23.1	26	15.6
RPMI 5 mM glucose + 10% FBS, 15.4 µM	23.2	19.3	15.6
RPMI 5 mM glucose + 10% FBS, 46.1 µM	19.6	14.3	13.5
RPMI 5 mM glucose + 10% dialyzed FBS, 0.000781 µM	106	95.8	81.3
RPMI 5 mM glucose + 10% dialyzed FBS, 0.00234 µM	32.5	58.3	48.1
RPMI 5 mM glucose + 10% dialyzed FBS, 0.00702 µM	25.2	41.4	35.2
RPMI 5 mM glucose + 10% dialyzed FBS, 0.0211 µM	31.5	31.5	26.3
RPMI 5 mM glucose + 10% dialyzed FBS, 0.0632 µM	24.8	37.7	24.2
RPMI 5 mM glucose + 10% dialyzed FBS, 0.19 µM	26	39.7	23.3
RPMI 5 mM glucose + 10% dialyzed FBS, 0.569 µM	29.7	35.9	22.8
RPMI 5 mM glucose + 10% dialyzed FBS, 1.71 µM	31.4	38.8	22.3
RPMI 5 mM glucose + 10% dialyzed FBS, 5.12 µM	29	37.7	22.4
RPMI 5 mM glucose + 10% dialyzed FBS, 15.4 µM	27.1	31.9	23.9
RPMI 5 mM glucose + 10% dialyzed FBS, 46.1 µM	20.3	25.9	22.3

P12-Ichikawa [4]
Conditions	AUC of viability dose-response curve
HPLM + 10% dialyzed FBS	148
RPMI 5 mM glucose + 10% FBS	143
RPMI 5 mM glucose + 10% dialyzed FBS	195

CC(C)N(CCNC(=O)CN1CCCC1=O)C(C)C
AUC of viability dose-response curve
Conditions	NOMO1 [3]	P12-Ichikawa [4]	SEM cells [5]
HPLM + 10% dialyzed FBS	430	460	477
RPMI 5 mM glucose + 10% FBS	456	453	460
RPMI 5 mM glucose + 10% dialyzed FBS	461	435	476
